{"source": "patent US9309263B2", "about": "“Fused multi-cyclic sulfone compounds as inhibitors of beta-secretase and methods of use thereof” (AMGEN INC., priority 2013, dated 2016)", "key": {"[1]": {"system": "Aβ 40 in conditioned medium of cells stably expressing Amyloid Precursor Protein (APP)", "assay": "In vitro BACE cell-based assay (Aβ 40 sandwich ELISA)", "conditions": "Homo sapiens, HEK293", "outline": "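APP-expressing cells, 24 h pre-culture in DMEM/10% FBS, treated 24 h with 10-point compound dilutions from 100 or 10 μM top, 0.1% DMSO final. Secreted Aβ40 quantified by sandwich ELISA (pAb40 capture, biotinylated 6E10 detection, europium TRF); IC50 from percent inhibition versus concentration.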"}, "[2]": {"molecular_target": "Beta Secretase enzyme (BACE) (Homo sapiens, UniProt P56817)", "sequence (P56817 46-501)": "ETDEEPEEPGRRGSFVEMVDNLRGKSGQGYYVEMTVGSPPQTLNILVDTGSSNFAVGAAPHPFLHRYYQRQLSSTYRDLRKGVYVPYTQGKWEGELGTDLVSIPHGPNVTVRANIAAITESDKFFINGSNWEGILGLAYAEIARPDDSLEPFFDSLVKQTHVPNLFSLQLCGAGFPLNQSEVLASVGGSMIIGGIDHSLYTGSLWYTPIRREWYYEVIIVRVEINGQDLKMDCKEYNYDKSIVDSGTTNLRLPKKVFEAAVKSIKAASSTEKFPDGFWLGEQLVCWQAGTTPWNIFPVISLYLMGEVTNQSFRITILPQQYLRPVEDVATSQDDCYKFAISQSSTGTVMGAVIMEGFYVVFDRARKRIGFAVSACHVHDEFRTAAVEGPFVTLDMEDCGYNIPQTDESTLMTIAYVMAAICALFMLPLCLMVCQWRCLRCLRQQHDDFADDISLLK", "assay": "In vitro enzymatic BACE FRET assay", "format": "biochemical", "conditions": "read-out: BACE1 FRET assay IC50", "outline": "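Enzyme (0.2 nM) pre-incubated 1 h with serially diluted inhibitors in 0.05 M acetate pH 4.2, 10% DMSO, 100 uM genapol. Reaction started with 50 nM fluorophore/quencher peptide FRET substrate, run 1 h, stopped with Tris to neutral pH. Fluorescence read at excitation 488 nm, […].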"}, "Cathepsin D (Cat D)": {"molecular_target": "Cathepsin D (Cat D) (Homo sapiens, UniProt P07339)", "sequence (P07339 65-412, species assumed)": "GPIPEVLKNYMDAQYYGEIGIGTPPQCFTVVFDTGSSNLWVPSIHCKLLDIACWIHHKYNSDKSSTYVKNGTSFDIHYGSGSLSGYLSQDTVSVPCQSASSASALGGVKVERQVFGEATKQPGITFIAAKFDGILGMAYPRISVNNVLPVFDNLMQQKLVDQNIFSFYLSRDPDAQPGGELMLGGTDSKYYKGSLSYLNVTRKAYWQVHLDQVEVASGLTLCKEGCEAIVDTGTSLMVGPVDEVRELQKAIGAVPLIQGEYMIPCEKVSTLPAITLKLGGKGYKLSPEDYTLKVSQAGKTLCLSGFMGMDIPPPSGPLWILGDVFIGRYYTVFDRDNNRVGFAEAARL", "assay": "In vitro enzymatic Cathepsin D (Cat D) FRET assay", "format": "biochemical", "outline": "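Recombinant CHO-expressed enzyme (9 nM) pre-incubated 1 h with serially diluted inhibitor in 0.05 M citrate pH 3.5, 10% DMSO final, 5 mM CHAPS. Reaction started with 20 nM FRET peptide substrate, run 1 h, stopped with Tris to neutral pH; fluorescence read at ex 500/em 580 nm.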"}, "[3]": {"conditions": "average IC50, HEK cell assay, Aβ 40 readout"}, "[4]": {"conditions": "average IC50, in vitro enzymatic BACE FRET assay"}, "[5]": {"conditions": "Cathepsin D FRET assay, read-out: CatD IC50"}}, "note": "Read-outs that look alike come from different tables or passages of the source."}
{"molecule": "CC1(C)C(N)=N[C@]2(C)c3cc(Nc4nccc5cc(Cl)cnc45)cnc3OCC[C@H]2S1(=O)=O", "note": "[Example 19, (4aR,11bR)-N^~10^~-(3-chloro-1,7-naphthyridin-8-yl)-3,3,11b-trimethyl-4a,5,6,11b-tetrahydro-3H-pyrido[3′,2′:6,7]oxepino[4,5-b][1,4]thiazine-2,10-diamine4,4-dioxide]", "values": [{"measurement": "IC50", "setting": "[1]; HEK cell, average IC50", "result": 0.019, "unit": "µM"}, {"measurement": "IC50", "setting": "[2]; average IC50", "result": 0.003, "unit": "µM"}, {"measurement": "IC50", "setting": "Cathepsin D (Cat D); read-out: CatD IC50", "result": 263, "unit": "µM"}]}
{"molecule": "CC#C[C@@H](C)Oc1cnc2c(Nc3ccc4c(c3)[C@@]3(C)N=C(N)C(C)(C)S(=O)(=O)[C@@H]3CCO4)ncc(F)c2c1", "note": "(single isomer, unassigned) [Example 71]", "values": [{"measurement": "IC50", "setting": "[1]; HEK cell, average IC50", "result": 2.36, "unit": "µM"}, {"measurement": "IC50", "setting": "[2]; average IC50", "result": 0.12, "unit": "µM"}, {"measurement": "IC50", "setting": "Cathepsin D (Cat D); read-out: CatD IC50", "result": 186, "unit": "µM"}]}
{"molecule": "CC1(C)C(N)=N[C@]2(CF)c3cc(NC(=O)c4ccc(OC(F)F)cn4)ccc3OCC[C@H]2S1(=O)=O", "note": "[Example 123, N-((4aR,11bS)-2-amino-11b-(fluoromethyl)-3,3-dimethyl-4,4-dioxido-4a,5,6,11b-tetrahydro-3H-[1]benzoxepino[4,5-b][1,4]thiazin-10-yl)-5-(difluoromethoxy)-2-pyridinecarboxamide]", "values": [{"measurement": "IC50", "setting": "[1]; [3]", "result": 0.033, "unit": "µM"}, {"measurement": "IC50", "setting": "[2]; [4]", "result": 0.019, "unit": "µM"}, {"measurement": "IC50", "setting": "Cathepsin D (Cat D); [5]", "result": 4100, "unit": "µM"}]}
{"molecule": "C[C@]12N=C(N)C3(CCC3)S(=O)(=O)[C@@H]1CCOc1ncc(Nc3nccc4cc(Cl)cnc34)cc12", "note": "[Example 61]", "values": [{"measurement": "IC50", "setting": "[1]; HEK cell, average IC50", "result": 0.125, "unit": "µM"}, {"measurement": "IC50", "setting": "[2]; average IC50", "result": 0.018, "unit": "µM"}, {"measurement": "IC50", "setting": "Cathepsin D (Cat D); read-out: CatD IC50", "result": 680, "unit": "µM"}]}
{"molecule": "C[C@H]1C[C@@H]2[C@](C)(N=C(N)C(C)(C)S2(=O)=O)c2cc(NC(=O)c3ncc(C(F)(F)F)cc3Cl)ccc2O1", "note": "[Example 73, N-((4aR,6S,11bR)-2-amino-3,3,6,11b-tetramethyl-4,4-dioxido-4a,5,6,11b-tetrahydro-3H-[1]benzoxepino[4,5-b][1,4]thiazin-10-yl)-3-chloro-5-(trifluoromethyl)-2-pyridinecarboxamide]", "values": [{"measurement": "IC50", "setting": "[1]; HEK cell, average IC50", "result": 0.004, "unit": "µM"}, {"measurement": "IC50", "setting": "[2]; average IC50", "result": 0.011, "unit": "µM"}, {"measurement": "IC50", "setting": "Cathepsin D (Cat D); read-out: CatD IC50", "result": 1390, "unit": "µM"}, {"measurement": "IC50", "setting": "Cathepsin D (Cat D); text summary referring to data in Table 2", "result": "> 1200", "unit": "µM"}]}
{"molecule": "Cc1cc(C(F)F)cnc1C(=O)Nc1ccc2c(c1)[C@@]1(C)N=C(N)C(C)(C)S(=O)(=O)[C@H]1CCC2", "note": "[Example 35, N-((4aS,11bR)-2-amino-3,3,11b-trimethyl-4,4-dioxido-3,4a,5,6,7,11b-hexahydrobenzo[3,4]cyclohepta[1,2-b][1,4]thiazin-10-yl)-5-(difluoromethyl)-3-methyl-2-pyridinecarboxamide]", "values": [{"measurement": "IC50", "setting": "[1]; HEK cell, average IC50", "result": 0.023, "unit": "µM"}, {"measurement": "IC50", "setting": "[2]; average IC50", "result": 0.049, "unit": "µM"}, {"measurement": "IC50", "setting": "Cathepsin D (Cat D); read-out: CatD IC50", "result": "> 400", "unit": "µM"}]}
{"molecule": "CC1(C)C(N)=N[C@]2(C)c3cc(NC(=O)c4ccc(C5CC5)cn4)ccc3OCC[C@H]2S1(=O)=O", "note": "[Example 179, N-((4aR,11bR)-2-amino-3,3,11b-trimethyl-4,4-dioxido-4a,5,6,11b-tetrahydro-3H-[1]benzoxepino[4,5-b][1,4]thiazin-10-yl)-5-cyclopropyl-2-pyridinecarboxamide]", "values": [{"measurement": "IC50", "setting": "[1]; HEK cells, average IC50", "result": 0.035, "unit": "µM"}, {"measurement": "IC50", "setting": "[2]; average IC50", "result": 0.066, "unit": "µM"}, {"measurement": "IC50", "setting": "Cathepsin D (Cat D); read-out: CatD IC50", "result": 705, "unit": "µM"}]}
{"molecule": "Cc1cc(Cl)cnc1C(=O)Nc1ccc2c(c1)[C@@]1(C)N=C(N)C(C)(C)S(=O)(=O)[C@@H]1CC(C)(C)O2", "note": "[Example 190, N-((4aR,11bR)-2-amino-3,3,6,6,11b-pentamethyl-4,4-dioxido-4a,5,6,11b-tetrahydro-3H-[1]benzoxepino[4,5-b][1,4]thiazin-10-yl)-5-chloro-3-methyl-2-pyridinecarboxamide]", "values": [{"measurement": "IC50", "setting": "[1]; HEK cells, average IC50", "result": 0.002, "unit": "µM"}, {"measurement": "IC50", "setting": "[2]; average IC50", "result": 0.005, "unit": "µM"}, {"measurement": "IC50", "setting": "Cathepsin D (Cat D); read-out: CatD IC50", "result": 441, "unit": "µM"}]}
{"molecule": "CC1(C)C(N)=N[C@]2(CF)c3cc(Nc4nccc5cc(Cl)cnc45)ccc3OCC[C@H]2S1(=O)=O", "note": "[Example 148, (4aR,11bS)-N^~10^~-(3-chloro-1,7-naphthyridin-8-yl)-11b-(fluoromethyl)-3,3-dimethyl-4a,5,6,11b-tetrahydro-3H-[1]benzoxepino[4,5-b][1,4]thiazine-2,10-diamine 4,4-dioxide]", "values": [{"measurement": "IC50", "setting": "[1]; [3]", "result": 0.093, "unit": "µM"}, {"measurement": "IC50", "setting": "[2]; [4]", "result": 0.012, "unit": "µM"}, {"measurement": "IC50", "setting": "Cathepsin D (Cat D); [5]", "result": 710, "unit": "µM"}]}
